From patent publication US8080522B2, “Polyethlene glycol modifications of thymosin alpha-1” (Institute of Pharmacology and Toxicology Academy of …, priority 2005, dated 2011)

How the values were obtained:
[1] = system: T lymphocyte (spleen cell); assay: T lymphocyte proliferation stimulated by Con A (3H-TdR incorporation); format: cell-based, mouse; details: for 3H-TdR incorporation (cpm, x ± SD): Con A 0.5 μg/mL, 72 hours, n = 4; for Enhancement percentage: versus Con A alone
Procedure: Sacrifice mouse by draining artery blood, remove spleen in sterile condition, and make it to spleen cell suspension. After red blood cell lysis, wash for 3 times, and stain with Trypan Blue to count the living cells. The amount of living cells should be more than 95%. Dilute the cell concentration to 5×10^6 cell/mL by adding RPMI-1640 culture with 10% bovine serum. Add spleen cell suspension to a sterilized 96-well plate for 100 μL per well. The total amount is 200 μL per well (including 50 μL Con A and 50 μL medicament). Each sample concentration is repeated fro 3-4 wells. Incubate the plate in a 5% CO2 chamber for 72 hours, add 10 μci/mL ^3H-TdR 20 μL per well 16 hours before termination of the incubation, giving rise to a final concentration of 1.0 μci (37.0 KBq)/mL. Collect cells on filter membrane by using Herveste 96 cell harvester, dried in 80° C. oven for 20 minutes or dried in air. Put the dried filter membrane into 1450-423 microBeta sample bag, add scintillation liquid, and measure radioactivity (cpm) in Perkin Elmer MicroBeta Trilux 1450 Scintillation Counter.

[2] = Half-life in liver homogenate (HPLC); format: in vitro ADME; details: 37° C., sample 0.4 mg/mL or 0.8 mg/mL, read-out: t1/2 in liver homogenate (converted)
Procedure: Experimental method: Prepare 0.4 mg/mL or 0.8 mg/mL sample aqueous solution in centrifuge tube, adding 50 μL liver homogenate. Then incubate for different time in 37° C. water bath. Terminate the reaction and precipitate liver homogenate protein by heating the mixture in boiling water for 5 minutes. Centrifuge it (10000 rpm) for 10 minutes. Analyze the supernatant by HPLC. The data was statistically analyzed by Origin Prof. 5.0.
HPLC: Column temperature: 25° C.; Flow rate 1.0 mL/min; Detection wavelength: 200 nm; Mobile phase A: 0.1% TFA/H2O; Mobile phase B: 0.1% TFA/70% CH3CN.

[3] = Plasma concentration / pharmacokinetics in mouse (competitive ELISA); format: in vivo; details: 300 μg per mouse, injected peritoneally, parameters in 24 h; for AUC: n = 3; for Cmax / Tmax: serum, ip, 300 ug/animal; for Cmax: n = 3, read-out: Cmax; for Tmax: n = 3, read-out: Tmax
Procedure: Coating antigen: Dilute Tα1 detection antigen stock solution to a final concentration of 2 μg/mL with coating solution, and add it into the wells of ELISA plate for 0.1 mL per well, and incubate at 4° C. for 5 days. Then wash the ELISA plate 3 times with washing buffer, each 0.2 mL/well and 3 min/time. Add 0.2 mL blocking buffer to each well, incubate for 1.5 hours at 37° C., wash plate 2 times by washing buffer, and spin dried.
Sample preparation: Weight sample accurately, dissolve it in saline to a concentration of 1.5 mg/mL. Administrate 0.2 Ml by injection to each mouse peritoneally. Collect blood sample in 3 min, 20 min, 40 min, 1 h, 2 h, 3 h, 6 h, 8 h, 12 h, and 24 h. Collect serum by centrifuge the blood samples for 5 minutes at 10000 rpm, stored at −20° C. in a freezer. o prepare test sample, […] was added by 0.1 mL 1:1500 rabbit anti-Tα1 serum (final concentration is 1:6000), and 0.2 mL CD-1® mouse serum, and […]. Prepare blank control at the same time. Total volume is 0.4 mL. Incubate for 2 hours at 37° C. To prepare standard sample, Tα1 0.1 mL with different concentrations from 0.0004 to 400 μg/mL was added by 0.1 mL 1:1500 rabbit anti-Tα1 serum (final concentration is 1:6000), and 0.2 mL CD-1® mouse serum. Prepare blank control at the same time. Total volume is 0.4 mL. Incubate for 2 hours at 37° C.
Sample Testing Add the prepared test sample and standard sample to ELISA plate, 0.1 mL/well, reacting for 1 hour in 37° C. chamber. Wash the plates 3 times, spin dryed. Add substrate 0.1 mL/well for 10 minutes. Add 2 mol/L H2SO4 0.05 mL to each well to terminate the reaction. Measure the OD value at 450 nm. Plot the standard curve with the concentration of Tα1 standard sample as abscissa and OD value as vertical coordinate. Calculate the content of test sample according to this standard curve.

spleen cell = assay: Interferon-γ production of spleen cells stimulated by Con A (double antibody sandwich ELISA); format: cell-based; details: for Concentration of IFN-γ: Con A 0.5 μg/mL, 24 hours, n = 3; for Enhancement percentage: versus Con A alone
Procedure: Prepare spleen cell suspension in sterile condition. Adjust cell concentration to 5×10^6 cell/mL by adding RPMI-1640 culture with 20% bovine serum. Add 0.5 mL cell suspension, 0.25 mL Con A (final concentration is 0.5 μg/mL) and 0.25 mL samples with different concentrations in 24-well plate; and add RPMI-1640 culture in control wells. Incubate the plates in a 5% CO2 chamber at 37° C. for 24 hours. Centrifuge and collect supernatant, test the content of IFN-γ in supernatant by double antibody sandwich ELISA. The protocol is according to the instruction on ELISA kit.

Substance	3H-TdR incorporation (cpm, x ± SD) ([1]; Table 2-2, sample 10 μg/mL) [cpm]	Enhancement percentage ([1]; Table 2-2, sample 10 μg/mL)	3H-TdR incorporation (cpm, x ± SD) ([1]; Table 2-2, sample 50 μg/mL) [cpm]	Enhancement percentage ([1]; Table 2-2, sample 50 μg/mL)	3H-TdR incorporation (cpm, x ± SD) ([1]; Table 2-2, sample 100 μg/mL) [cpm]	Enhancement percentage ([1]; Table 2-2, sample 100 μg/mL)	half-life [2] [min]	AUC [3] [ng·h/mL]	Cmax [3] [ng/mL]	Tmax [3] [min]	Concentration of IFN-γ (spleen cell; Table 1-2, sample 1 μg/mL) [pg/mL]	Enhancement percentage (spleen cell; Table 1-2, sample 1 μg/mL)	Concentration of IFN-γ (spleen cell; Table 1-2, sample 10 μg/mL) [pg/mL]	Enhancement percentage (spleen cell; Table 1-2, sample 10 μg/mL)	Concentration of IFN-γ (spleen cell; Table 1-2, sample 100 μg/mL) [pg/mL]	Enhancement percentage (spleen cell; Table 1-2, sample 100 μg/mL)	3H-TdR incorporation (cpm, x ± SD) ([1]; Table 2-1, sample 10 μg/mL) [cpm]	Enhancement percentage ([1]; Table 2-1, sample 10 μg/mL)	3H-TdR incorporation (cpm, x ± SD) ([1]; Table 2-1, sample 50 μg/mL) [cpm]	Enhancement percentage ([1]; Table 2-1, sample 50 μg/mL)	other results
Ac-SDAACDTSSEITTKDLKEKKEVVEEAEN-OH [BMJBT001]	19289 ± 4456	+65.7%	19972 ± 3287	+71.6%	21119 ± 5339	+81.4%	228	3090	448	20	3000.5 ± 56.1	−7.9%	3584.2 ± 31.6	+10.0%	3618.5 ± 93.8	+11.0%					
Ac-SDAAVDTCSEITTKDLKEKKEVVEEAEN-OH [BMJBT002]	23881 ± 2809	+105.1%	19611 ± 2612	+68.5%	11956 ± 1555	+2.6%	126	2440	1860	20											
Ac-SDAAVDTSSECTTKDLKEKKEVVEEAEN-OH [BMJBT003]	21825 ± 2216	+87.5%	20465 ± 2432	+77.3%	15240 ± 2369	+30.9%	168	8710	5650	20	3428.6 ± 111.9	+5.2%	3732.2 ± 30.2	+14.5%	3990.8 ± 250.0	+22.5%					
Ac-SDAAVDTSSEITTKDCKEKKEVVEEAEN-OH [BMJBT004]							48	8760	4940	20	3671.1 ± 86.0	+12.7%	3216.1 ± 228.6	−1.3%	3565.9 ± 77.8	+0.5%					
Ac-SDAAVDTSSEITTKDLCEKKEVVEEAEN-OH [BMJBT005]							168	6110	3650	20							22237 ± 5551	+64.9%	22413 ± 1436	+66.2%	3H-TdR incorporation (cpm, x ± SD) ([1]; Table 2-1, sample 100 μg/mL): 17551 ± 2491 cpm; Enhancement percentage ([1]; Table 2-1, sample 100 μg/mL): +30.1%; Concentration of IFN-γ (spleen cell; Table 1-1, sample 1 μg/mL): 1822.2 ± 24.3 pg/mL; Enhancement percentage (spleen cell; Table 1-1, sample 1 μg/mL): +142.4%; Concentration of IFN-γ (spleen cell; Table 1-1, sample 10 μg/mL): 1706.5 ± 139.3 pg/mL; Enhancement percentage (spleen cell; Table 1-1, sample 10 μg/mL): +127.0%; Concentration of IFN-γ (spleen cell; Table 1-1, sample 100 μg/mL): 906.9 ± 10.7 pg/mL; Enhancement percentage (spleen cell; Table 1-1, sample 100 μg/mL): +20.6%
Ac-SDAAVDTSSEITTKDLKEKKCVVEEAEN-OH [BMJBT006]							156	12800	11500	20							21152 ± 2936	+56.8%	19880 ± 1777	+47.4%	3H-TdR incorporation (cpm, x ± SD) ([1]; Table 2-1, sample 100 μg/mL): 14319 ± 2333 cpm; Enhancement percentage ([1]; Table 2-1, sample 100 μg/mL): +6.2%
Ac-SDAAVDTSSEITTKDLKEKKEVVEEAEN-OH [Tα1, reference compound]	18315 ± 2194	+57.3%	17007 ± 1526	+46.1%	14383 ± 3225	+23.5%	252	9220	10100	20							17871 ± 4635	+32.5%	17007 ± 1526	+26.1%	3H-TdR incorporation (cpm, x ± SD) ([1]; Table 2-1, sample 100 μg/mL): 14624 ± 3253 cpm; Enhancement percentage ([1]; Table 2-1, sample 100 μg/mL): +6.6%; Concentration of IFN-γ (spleen cell; Table 1-1, sample 1 μg/mL): 1449.3 ± 334.3 pg/mL; Enhancement percentage (spleen cell; Table 1-1, sample 1 μg/mL): +92.8%; Concentration of IFN-γ (spleen cell; Table 1-1, sample 10 μg/mL): 1514.0 ± 102.1 pg/mL; Enhancement percentage (spleen cell; Table 1-1, sample 10 μg/mL): +101.4%; Concentration of IFN-γ (spleen cell; Table 1-1, sample 100 μg/mL): 1007.2 ± 31.3 pg/mL; Enhancement percentage (spleen cell; Table 1-1, sample 100 μg/mL): +34.0%; Concentration of IFN-γ (spleen cell; Table 1-3, sample 1 μg/mL): 3609.6 ± 167.8 pg/mL; Enhancement percentage (spleen cell; Table 1-3, sample 1 μg/mL): +18.2%; Concentration of IFN-γ (spleen cell; Table 1-3, sample 10 μg/mL): 3891.5 ± 106.1 pg/mL; Enhancement percentage (spleen cell; Table 1-3, sample 10 μg/mL): +27.4%; Concentration of IFN-γ (spleen cell; Table 1-3, sample 100 μg/mL): 4361.3 ± 87.8 pg/mL; Enhancement percentage (spleen cell; Table 1-3, sample 100 μg/mL): +42.8%
